Measured values as given in article PMC7545998, “A snake toxin as a theranostic agent for the type 2 vasopressin receptor” (Theranostics, 2020).

Key:
[1] = system: porcine kidney epithelial cells LLC-pk1; assay: Confocal imaging of endogenous V2R in LLC-pk1 cells; assay type: cell-based; details: 3.4 µM, 30-min pre-incubation
Protocol: In cells endogenously expressing V2R, such as porcine kidney epithelial cells LLC-pk1, labeling of V2R with AFDye-488-MQ1 and Cy5.5-MQ1 (100 nM) was performed with either fresh or PFA-fixed cells (Figures 7A and B). […] In the pathophysiological context, three renal cancer cell lines (CAKI-2, ACHN and A498 [38]) known to express V2R were tested. […] The presence of V2R, at the cell membrane level, fluctuated as a function of cell density and the number of cell divisions, whatever the cell line used. […] To our knowledge, this is the first specific ligand labeling of V2R in non-permeabilized cancer cells.
Freshly dissociated CHO, LLC-PK1 or renal cancer cell lines expressing vasopressin receptors were seeded on 12-mm glass coverslips pre-coated with poly-ornithine, cultured for 48 h before incubation in DMEM, 0.2 mg/mL BSA, 25 mM HEPES, pH 7.4 for 1 h at 12°C or 30 min at 22 °C with fluorescent analogues in the absence or presence of non-fluorescent ligands (30-min pre-incubation). After 3 washes with cold PBS, the cells were finally fixed in 4% PFA overnight at 4 °C and mounted with Mowiol. The fluorescent cells were imaged using a Zeiss LSM510 Meta confocal microscope equipped with a ×63 (NA 1.4) oil immersion objective. For excitation, available laser rays were 488 and 633 nm and emission signals were collected in multitracking mode with appropriate band pass filters. […]

[2] = system: Sprague-Dawley rats; assay: Diuresis and urine osmolality with daily i.p. injection of 3 nmol/kg for 4 days; assay type: in vivo, rat; details: daily i.p. 3 nmol/kg; for Diuresis Average / Excretion Average / Osmolarity Average: N=5
Protocol: We injected this dose daily for 4 days and measured urine volume and osmolality.
(§1) Sprague-Dawley rats are aged between 6 and 12 weeks, between 237 g and 545 g and were use up to 3 times. […] Urine was collected at various times, and centrifuged for 30 min at 20,800 g. Urine osmolality was determined with an osmometer (Knauer, Berlin, Germany). For the pharmacokinetic experiments, a catheter was implanted in the rat jugular vein five days before the experiment. Blood samples of 400 μl were taken at various times under heparin conditions. Blood was centrifuged at 2000 g for 5 min at 4 °C and plasma was frozen at -20 °C.

[3] = system: 156 other GPCRs (including V1aR, V1bR and OTR); details: at µM concentrations; cited from earlier work
Text: Named mambaquaretin (MQ1), this peptide was isolated from mamba snake venom.

[4] = system: Sprague-Dawley rats; assay: Pharmacodynamics: diuresis and urine osmolality after single i.p. injection; assay type: in vivo, rat; set-up: k value of diuresis over time, first phase / k value of diuresis over time, second phase: unit not given here; details: for maximal diuresis: between first and second h post-injection; for half-life of diuresis decrease: mono-exponential
Protocol: Diuresis was maximal between the first and second h post-injection (pi), with volumes of 29.5, 45.6, 70.9, 67.6 and 79.1 mL/kg/h for the doses of 3, 10, 30, 100 and 356 nmol/kg, respectively (Figure 3C). […] For the highest dose of 356 nmol/kg, the diuresis decreased quickly during the first 4 h and then lasted for four days.
as §1
Sample preparation is described in Table S1. […] The mobile phase consisted of 0.1% formic acid in water (A) and 0.1% formic acid in acetonitrile (B) running in a gradient mode from B 2% to B 100% in 3 min. […] The mass spectrometer was operated in positive ESI and MRM mode. […] A model was selected based on the extravascular (i.p.) route of administration. For the i.p. route, concentration at time zero was assumed to be zero. For each rat, the first concentration below the LLOQ was set at LLOQ/2 for calculation of PK parameters. The area under the plasma concentration versus time curve (AUC) was calculated using the linear trapezoidal method (linear interpolation). When appropriate, the terminal elimination phase of the PK profile was estimated based on the best fit (r^2) using at least the last six observed concentrations. […] The same approach was used to model diuresis over time and two k values were obtained as 0.37774 and 0.02326. Lastly, the PK/PD correlation was achieved after calculating concentrations and diuresis volumes over time based on the equation y = A0*e^-kt where A0 was the computed concentration or diuresis volume at the origin of each phase.

[5] = 356 nmol/kg i.p., bi-exponential analysis
[6] = single i.p. 1 nmol/kg, 0-24 h, n=6
[7] = single i.p. 3 nmol/kg, 0-24 h, n=6
[8] = single i.p. 3 nmol/kg, 24 - 48 h, n=6
[9] = single i.p. 10 nmol/kg, 0-24 h, n=11
[10] = single i.p. 10 nmol/kg, 24 - 48 h, n=11
[11] = single i.p. 30 nmol/kg, 0-24 h, n=11
[12] = single i.p. 30 nmol/kg, 24 - 48 h, n=11
[13] = single i.p. 100 nmol/kg, 0-24 h, n=12
[14] = single i.p. 100 nmol/kg, 24 - 48 h, n=12
[15] = single i.p. 356 nmol/kg, 0-24 h, n=17
[16] = single i.p. 356 nmol/kg, 24 - 48 h, n=17
[17] = single i.p. 356 nmol/kg, 72 h (24-h period), n=12
[18] = single i.p. 356 nmol/kg, 96 h (24-h period), n=12

mambaquaretin [MQ1]
effect on labeling by AFDye-488-MQ1 and Cy5.5-MQ1 [1]: inhibited the labeling | half-life of diuresis decrease ([2]; day 1): 1.6 h | Diuresis Average ([2]; day 1, 24-h period): 0.105 mL/min/kg | Excretion Average ([2]; day 1, 24-h period): 1919 µOsm/h/kg | Osmolarity Average ([2]; day 1, 24-h period): 328 mOsm/kg H2O | half-life of diuresis decrease ([2]; day 2): 1.3 h | Diuresis Average ([2]; day 2, 24-h period): 0.0983 mL/min/kg | Excretion Average ([2]; day 2, 24-h period): 1820 µOsm/h/kg | Osmolarity Average ([2]; day 2, 24-h period): 317 mOsm/kg H2O | half-life of diuresis decrease ([2]; day 3): 1.3 h | Diuresis Average ([2]; day 3, 24-h period): 0.1 mL/min/kg | Excretion Average ([2]; day 3, 24-h period): 1805 µOsm/h/kg | Osmolarity Average ([2]; day 3, 24-h period): 313 mOsm/kg H2O | half-life of diuresis decrease ([2]; day 4): 1.6 h | Diuresis Average ([2]; day 4, 24-h period): 0.095 mL/min/kg | Excretion Average ([2]; day 4, 24-h period): 1940 µOsm/h/kg | Osmolarity Average ([2]; day 4, 24-h period): 326 mOsm/kg H2O | affinity for 156 other GPCRs (including V1aR, V1bR and OTR) [3]: no affinity | maximal diuresis ([4]; 3 nmol/kg i.p.): 0.492 mL/min/kg | half-life of diuresis decrease ([4]; 3 nmol/kg i.p.): 3.7 h | maximal diuresis ([4]; 10 nmol/kg i.p.): 0.76 mL/min/kg | half-life of diuresis decrease ([4]; 10 nmol/kg i.p.): 2.4 h | maximal diuresis ([4]; 30 nmol/kg i.p.): 1.18 mL/min/kg | half-life of diuresis decrease ([4]; 30 nmol/kg i.p.): 2.4 h | maximal diuresis ([4]; 100 nmol/kg i.p.): 1.13 mL/min/kg | half-life of diuresis decrease ([4]; 100 nmol/kg i.p.): 1.2 h | maximal diuresis ([4]; 356 nmol/kg i.p.): 1.32 mL/min/kg | fast half-life (T1/2α) of diuresis [4, 5]: 1.2 h | slow half-life (T1/2β) of diuresis [4, 5]: 27.3 h | k value of diuresis over time, first phase ([4]; 356 nmol/kg i.p., modelled): 0.3777 | k value of diuresis over time, second phase ([4]; 356 nmol/kg i.p., modelled): 0.02326 | diuresis and osmolality compared to control ([4]; single 1 nmol/kg i.p.): statistically unchanged | Diuresis Average [4, 6]: 0.039 mL/min/kg | Excretion Average [4, 6]: 2206 µosm/h/kg | Osmolarity Averag [4, 6]: 1158 mOsmol/kgH2O | Diuresis Average [4, 7]: 0.0855 mL/min/kg | Excretion Average [4, 7]: 2710 µosm/h/kg | Osmolarity Averag [4, 7]: 503 mOsmol/kgH2O | Diuresis Average [4, 8]: 0.0255 mL/min/kg | Excretion Average [4, 8]: 3077 µosm/h/kg | Osmolarity Averag [4, 8]: 2000 mOsmol/kgH2O | Diuresis Average [4, 9]: 0.13 mL/min/kg | Excretion Average [4, 9]: 2092 µosm/h/kg | Osmolarity Averag [4, 9]: 273 mOsmol/kgH2O | Diuresis Average [4, 10]: 0.0263 mL/min/kg | Excretion Average [4, 10]: 2117 µosm/h/kg | Osmolarity Averag [4, 10]: 1332 mOsmol/kgH2O | Diuresis Average [4, 11]: 0.1742 mL/min/kg | Excretion Average [4, 11]: 2280 µosm/h/kg | Osmolarity Averag [4, 11]: 214 mOsmol/kgH2O | Diuresis Average [4, 12]: 0.0375 mL/min/kg | Excretion Average [4, 12]: 2064 µosm/h/kg | Osmolarity Averag [4, 12]: 937 mOsmol/kgH2O | Diuresis Average [4, 13]: 0.2138 mL/min/kg | Excretion Average [4, 13]: 2046 µosm/h/kg | Osmolarity Averag [4, 13]: 162 mOsmol/kgH2O | Diuresis Average [4, 14]: 0.0457 mL/min/kg | Excretion Average [4, 14]: 1930 µosm/h/kg | Osmolarity Averag [4, 14]: 703 mOsmol/kgH2O | Diuresis Average [4, 15]: 0.3492 mL/min/kg | Excretion Average [4, 15]: 2658 µosm/h/kg | Osmolarity Averag [4, 15]: 136 mOsmol/kgH2O | Diuresis Average [4, 16]: 0.161 mL/min/kg | Excretion Average [4, 16]: 2617 µosm/h/kg | Osmolarity Averag [4, 16]: 283 mOsmol/kgH2O | Diuresis Average [4, 17]: 0.1 mL/min/kg | Excretion Average [4, 17]: 2617 µosm/h/kg | Osmolarity Averag [4, 17]: 455 mOsmol/kgH2O | Diuresis Average [4, 18]: 0.0627 mL/min/kg | Excretion Average [4, 18]: 2838 µosm/h/kg | Osmolarity Averag [4, 18]: 754 mOsmol/kgH2O
